Measurements published in patent US20240130988A1, “Use of stilbene compounds in the preparation of anti-tumor drugs” (Guangzhou AnHao Pharmaceutical Technology CO., LTD., priority 2022, published 2024).
Marks after values point to notes of the source that are not given here.

How the values were obtained:
[1] = test system: nonfusion human umbilical vein endothelial cells (HUVEC); experiment: TMT quantitative proteomics on nonfusion HUVEC; type: cell-based; conditions: 10 μM; for Differentially expressed proteins: more than 1.5 times or less than 0.67 times vs control; for Down-regulation / Up-regulation: number of proteins
Description: Nonfusion human umbilical vein endothelial cells (HUVEC) were used to simulate new tumor blood vessels, while confluent HUVECs were used to simulate normal blood vessels, to construct experimental models. Two different HUVECs were treated with the compound at the same dosage of 10 μM, to simulate the fusion cell state, and proteome samples were prepared. After preparation of peptide segments, the segments were labelled with TMT, and a quantitative proteomics analysis was carried out. The efficiency of TMT labeling was higher than 99.4%, and a total of 28372 peptide segments from 4934 proteins were characterized using a strict 1% FDR limit. Among them, 4909 quantifiable proteins were identified, indicating reliable quality. The nonfusion treatment groups and the fusion treatment groups were compared with their respective control groups, and the control group was used as a reference, with a significant difference of more than 1.5 times or less than 0.67 times as the protein score standard.
The total cell proteins of the samples in nonfusion cell groups and fusion cell groups were extracted separately, and 2 μg of protein samples were subjected to quality analysis, The quantitative proteomics experiments were carried out, and the protein concentration assay was performed by quantitative grayscale measurement.
Data analysis: The human protein database (Scientific name: Homo sapiens, 9606) was downloaded from UniProt, MaxQuant (v 1.5.5.1) search engine was used to search for the database. A total of 4934 proteins (4909 quantitative proteins) and 28372 peptide segments were identified by TMT quantitative proteomics experiments, with a labeling efficiency of more than 99%, and the complete digestion occupied 86.3%.

[2] = test system: LLC (mouse lung cancer cells); experiment: Enrichment of CD8+ cytotoxic T lymphocytes in tumor tissue, Lewis non-small cell lung cancer model of mice; type: in vivo; conditions: 400 mg/kg ip once a day for 10 days, CD8+ immunohistochemistry
[3] = test system: human renal cell carcinoma AGHN; experiment: Human renal cell carcinoma AGHN transplanted tumor in nude mice; type: in vivo, BALB/C nude mice; conditions: 200 mg/kg ip × 14
Description: A human renal cell carcinoma AGHN model transplanted into nude mice was used in the experiment to investigate the anti-tumor effect of test compounds. […] AGHN was measured.
(§1) Preparation: The compound was prepared as the injection at the desired concentration with sterile normal saline, prior to administration.
Animal strain: BALB/C, nude mice (SPF grade), weight: 19-21 g, gender: male. Number of animals in each treatment group: 8; number of animals in the control group: >12.
(§2) The tumor blocks of human renal cell carcinoma AGHN with good growth were cut into uniform small pieces of 3 mm under sterile conditions, and then subcutaneously inoculated into the right armpit of each mouse with a cannula. The mice were divided into 9 groups, 8 mice for each treatment group, while >12 mice were included in the control group.
(§3) 14 days after inoculation, the average volume of the tumor block was about 100 mm^3, The animals were regrouped based on the size of the tumor, and the animals with tumors that were too large and too small were sifted out. For each group, the average volume of tumors was basically the same, and then the mice were initially treated with test compounds. The mice were intraperitoneally injected once a day for 14 days, at a dosage of 0.2 mL/20 g body weight; the mice in the control group were given the same volume of sterile normal saline. From the 14th day of inoculation, the long diameter a (mm) of the tumor, together with the perpendicular short diameter b (mm), was measured using a digital electronic caliper, twice a week. The calculation formula of tumor volume is: TV=ab^2/2, and the formula for calculating the relative tumor volume is: RTV=Vt/Vo, wherein Vo denotes the tumor volume measured when the mice were divided into groups (i.e. d1), and Vt denotes the tumor volume from each measurement.
(§4) The result determination is based on the following formula: […]

[4] = test system: LLC (mouse lung cancer cells); experiment: Enrichment of CD8+ cytotoxic T lymphocytes in tumor tissue, Lewis non-small cell lung cancer model of mice; type: in vivo; conditions: 400 mg/kg ip once a day for 10 days, flow cytometry
Description: LLC (mouse lung cancer cells) were a mouse Lewis lung cancer cells.
The modeling method for LLC cell lung cancer in mice was as follows:
LLC cells were cultured in the general medium containing 10% fetal bovine serum and 100 μg/mL of double antibody (penicillin±streptomycin), and then cultivated in a 37° C., 5% CO2 cell incubator for routine incubation. LLC cells, that had grown to logarithmic phase, were digested with 0.25% trypsin (containing EDTA) to form a cell suspension, which was centrifuged at 1000 rpm/min for 3 min. The supernatant was discarded, and cell precipitates were collected, that were resuspended in culture medium without serum and double antibody. The cell suspension was further centrifuged to adjust the volume under the same conditions with the aid of cell counting, so as to prepare a cell suspension at a concentration of […] was injected into the right abdomen of each mouse, to complete the inoculation of tumor cells. The tumor was allowed to grew about 10 days, and the volume reached around 100 mm^3, before the mice were treated with test compounds.
Drug preparation: compounds 1-13 of the present invention were respective prepared into an injection with injection water.
Experimental methods: The model mice with LLC cell lung cancer were treated by intraperitoneal administration of 400 mg/kg injection containing the compound of the present invention. The model mice were divided into a negative control group (model mice only receiving equal volume of injection water by intraperitoneal administration) and treatment groups (model mice receiving the injection prepared with the compound of the present invention by intraperitoneal administration). The intraperitoneal injection regimen was carried out by injecting once a day at the pre-determined time. Before administration, the mice were weighed, and then treated with the injection at a dosage of 10 mL/kg, After successive administration for 10 days, that is, on the 10th day after receiving treatment, the mice were sacrificed, and the subcutaneous tumors were stripped to detect the ratio of cytotoxic T lymphocyte antigen CD8^+ in tumor tissues of the negative group and the treatment group by flow cytometry.
CD8^+ tumor-infiltrating lymphocytes in tumor tissues were detected by flow cytometry. The specific steps were as follows:
The mice were sacrificed, and then the abdominal epidermis of the mice was cut open using ophthalmic scissors, to fully expose the subcutaneous tumors. The subcutaneous tumor tissues on the right side of the mouse's abdomen were gradually peeled off with tweezers and ophthalmic scissors. After rinsing with PBS, the stripped tumor tissues were cut into about 1 mm using ophthalmic scissors, and then placed in 3 mL of PBS buffer containing 100 μg/mL of hyaluronidase. A centrifuge tube containing a dispersed liquid was placed in a water bath and kept at 37° C. for 20 min. A pipette was used to blow and shake the digestive tumor tissues every 5 minutes to fully digest. The dispersed liquid containing undigested tumor tissues was filtered through a 70 μm stainless steel cell screen, and the remaining undigested tumor tissues were ground using a push rod of 20 mL syringe on 70 μm cell screen and rinsed 5 times with 1 mL of PBS while grinding. The cell suspension passing the cell screen was transferred to a 15 mL centrifuge tube, and centrifuged at 4000 rpm for 3 min. Then, cell precipitates were collected, to which was added 2 mL of red cell lysis buffer, and rested for 10 min, followed by centrifuging at 4000 rpm for 3 min. After washing with PBS, the cells were resuspended by adding 2-3 mL of PBS.
An appropriate amount of cell suspension was used as the sample for flow cytometry, and after counting, the cell suspension was adjusted to have a concentration of 5×10^6/mL. 100 μL of cell suspension was added to a test tube with a pipettor. […]

[5] = test system: human liver cancer QGY7703; experiment: Human liver cancer QGY7703 transplanted tumor in nude mice; type: in vivo, BALB/C nude mice; parameters: key to RTV (d 18): RTV = Vt/Vo, tumor volume relative to volume at grouping (d1); conditions: QGY7703, 100 mg/kg iv × 14
Description: A human liver cancer QGY7703 model transplanted into nude mice was used in the experiment to investigate the anti-tumor effect of test compounds. The mice were intravenously injected at a dosage of 100 mg/kg for 14 days, and the tumor inhibition rate against human liver cancer QGY7703 was measured.
as §1
Animal strain: BALB/C nude mice (SPF grade), weight: 19-21 g, gender: male. Number of animals in each treatment group: 8; number of animals in the control group: >12.
as §2, with “human liver cancer QGY7703” for “human renal cell carcinoma AGHN”, “cannula. These” for “cannula. The”, “while more than 12” for “while >12”
as §3, with “about 100 mm^3. The animals” for “about 100 mm^3, The animals”, “The mice in the treatment groups were intravenously” for “The mice were intraperitoneally”, “groups were intravenously injected once” for “mice were intraperitoneally injected once”, “dosage of 0.1 mL/20 g” for “dosage of 0.2 mL/20 g”, “tumor volume is RTV=Vt/Vo, wherein” for “tumor volume is: RTV=Vt/Vo, wherein”, “and Vt is the tumor” for “and Vt denotes the tumor”
as §4

human lung cancer A549 = experiment: Human lung cancer A549 transplanted tumors in nude mice; type: in vivo, BALB/C nude mice; conditions: A549, 400 mg/kg ig × 14
Description: In this experiment, a human lung cancer A549 model transplanted into nude mice was selected to study the anti-tumor effect of test compounds. The mice were treated at a dosage of 400 mg/kg by gavage for 14 days, and the tumor inhibition rate against human lung cancer A549 was measured.
Preparation: The compound was prepared as the solution at the desired concentration with distilled water, prior to administration.
Animal strain: BALB/C nude mice (SPF grade), weight: 19-21 g, gender: male. Number of animals in each treatment group: 8; Number of animals in the control group: >12.
Lung cancer A549 tumor blocks with good growth were chosen and cut into uniform small pieces of 3 mm under sterile conditions, and then subcutaneously inoculated into the right armpit of each mouse with a cannula. These mice were divided into 9 groups, 8 mice for each treatment group, while more than 12 mice were included in the control group.
14 days after inoculation, the average volume of the tumor mass was about 100 mm^3. The animals were regrouped based on the size of the tumor, and the mice with tumors that were too large and too small were eliminated. For each group, the average volume of tumors was basically the same, and then the mice were treated with test compounds. The mice in the treatment groups were administered once a day by gavage for 14 successive days, at a dosage of 0.5 mL/20 g body weight; the mice in the control group were given the same volume of physiological saline. From the 14th day of inoculation, the long diameter a (mm) of the tumor, together with the perpendicular short diameter b (mm), was measured using a digital electronic caliper, twice a week. The calculation formula of tumor volume is: TV=ab^2/2, and the formula for calculating the relative tumor volume is RTV=Vt/Vo, wherein Vo denotes the tumor volume measured when the mice were divided into groups (i.e. d1), and Vt is the tumor volume from each measurement.
as §4

[6] = test system: human ovarian cancer A2780; experiment: Human ovarian cancer A2780 transplanted tumor in nude mice; type: in vivo, BALB/C nude mice; conditions: A2780, 200 mg/kg ip × 14
Description: A human ovarian cancer A2780 model transplanted into nude mice was used in the experiment to investigate the anti-tumor effect of test compounds.
as §1
Animal strain: BALB/C nude mice (SPF grade), weight: 19-21 g, gender: male.
Number of animals in each treatment group: 8; number of animals in the control group: >12.
as §2, with “ovarian cancer A2780 growing well” for “renal cell carcinoma AGHN with good growth”
as §3, with “about 100 mm^3. The animals” for “about 100 mm^3, The animals”, “tumor volume is RTV=Vt/Vo, wherein” for “tumor volume is: RTV=Vt/Vo, wherein”, “and Vt is the tumor” for “and Vt denotes the tumor”
as §4

| SMILES | Differentially expressed proteins [1] | Down-regulation [1] | Up-regulation [1] | The ratio of distribution area in tumor tissues (%) [2] | RTV (d 18) [3] | Tumor inhibitory rate % [3] | The ratio of CD8^+ in total immune cells of tumor tissues (%) [4] | inhibition in vivo at 100 mg/kg ([5]; Mus musculus, QGY-7703, read-out: Tumor inhibitory rate %) | RTV (d 18) [5] | RTV (d 22) (human lung cancer A549) | inhibition in vivo at 400 mg/kg (human lung cancer A549; Mus musculus, po, read-out: Tumor inhibitory rate %) | RTV (d 18) [6] | Tumor inhibitory rate % [6] |
| --- | --- | --- | --- | --- | --- | --- | --- | --- | --- | --- | --- | --- | --- |
| COc1ccc(/C=C(/C(=O)O)c2cc(OC)c(OC)c(OC)c2)c(OC)c1O [Compound 12, (E)-3-(3-hydroxy-2,4-dimethoxyphenyl)-2-(3,4,5-trimethoxyphenyl)acrylic acid] | 322 | 314 | 8 | 5.883 ± 0.6723% | 5.62 ± 0.59 | 58.48^## % | 0.0753 ± 0.0103% | 62.2% | 4.86 ± 0.59 | – | – | – | – |
| CCOc1ccc(/C=C(/C(=O)O)c2cc(OC)c(OC)c(OC)c2)cc1O [Compound 13, (E)-3-(4-ethoxy-3-hydroxyphenyl)-2-(3,4,5-trimethoxyphenyl)acrylic acid] | 319 | 312 | 7 | 6.547 ± 0.5843% | – | – | 0.0723 ± 0.0126% | – | – | 3.83 ± 0.64 | 67.4% | 4.78 ± 0.83 | 53.64^## % |
